Values quoted from earlier work in PubChem BioAssay AID1259409 (Chemical Carcinogenesis Research Information System (CCRIS), 2018).

Tested on: rodent chemically induced tumor inhibition, incidence and multiplicity
Assay: CCRIS tumor inhibitor studies

Compound: C=CC1=C(C)C2=CC3=NC(=C(CC(=O)O)C4=NC(=C(C)C4=C(O)O)C=c4[nH]c(c(C)c4CC)=CC1=N2)C(CCC(=O)O)C3C (stereo not given)
- outcome (Carcinogen: 2-AMINO-3-METHYLIMIDAZO[4,5-F]QUINOLINE [76180-96-6], Dose [Inhibitor]: 0, 0.01% (W/V BASED ON TOTAL CHLORINS) IN DRINKING WATER BEGINNING 1 WK POST CARCINOGEN TREATMENT FOR THE DURATION STUDY, Route [Inhibitor]: ORAL, Species: RAT, Strain/Sex: F344/MALE, Target Tissue: Type of Lesion: SMALL INTESTINE: TUMOR, Dose [Carcinogen]: 0.03% IN DIET FOR FIRST 5 WK (STUDY DURATION: 52 WK), Promoter: NONE): 0/22 (0%), 2/20 (10%), -%, not significant
- tumour outcome (control, treated, inhibition, significance) (Carcinogen: 2-AMINO-3-METHYLIMIDAZO[4,5-F]QUINOLINE [76180-96-6], Dose [Inhibitor]: 0, 0.01% (W/V BASED ON TOTAL CHLORINS) IN DRINKING WATER BEGINNING 1 WK POST CARCINOGEN TREATMENT FOR THE DURATION STUDY, Route [Inhibitor]: ORAL, Species: RAT, Strain/Sex: F344/MALE, Target Tissue: Type of Lesion: ZYMBAL'S GLAND: TUMOR, Dose [Carcinogen]: 0.03% IN DIET FOR FIRST 5 WK (STUDY DURATION: 52 WK), Promoter: NONE): 5/22 (23%), 5/20 (25%), -9%, not significant
- tumour outcome (control, treated, inhibition, significance) (Carcinogen: 2-AMINO-3-METHYLIMIDAZO[4,5-F]QUINOLINE [76180-96-6], Dose [Inhibitor]: 0, 0.1% (W/V BASED ON TOTAL CHLORINS) IN DRINKING WATER BEGINNING 1 WK POST CARCINOGEN TREATMENT FOR THE DURATION STUDY, Route [Inhibitor]: ORAL, Species: RAT, Strain/Sex: F344/MALE, Target Tissue: Type of Lesion: COLON: TUMOR, Dose [Carcinogen]: 0.03% IN DIET FOR FIRST 5 WK (STUDY DURATION: 52 WK), Promoter: NONE): 2/22 (9%), 2/22 (9%), 0%, not significant
- tumour outcome (control, treated, inhibition, significance) (Carcinogen: 2-AMINO-3-METHYLIMIDAZO[4,5-F]QUINOLINE [76180-96-6], Dose [Inhibitor]: 0, 0.1% (W/V BASED ON TOTAL CHLORINS) IN DRINKING WATER BEGINNING 1 WK POST CARCINOGEN TREATMENT FOR THE DURATION STUDY, Route [Inhibitor]: ORAL, Species: RAT, Strain/Sex: F344/MALE, Target Tissue: Type of Lesion: LIVER: TUMOR, Dose [Carcinogen]: 0.03% IN DIET FOR FIRST 5 WK (STUDY DURATION: 52 WK), Promoter: NONE): 16/22 (73%), 8/22 (36%), 51%, p<0.05
- tumour outcome (control, treated, inhibition, significance) (Carcinogen: 2-AMINO-3-METHYLIMIDAZO[4,5-F]QUINOLINE [76180-96-6], Dose [Inhibitor]: 0, 0.1% (W/V BASED ON TOTAL CHLORINS) IN DRINKING WATER BEGINNING 1 WK POST CARCINOGEN TREATMENT FOR THE DURATION STUDY, Route [Inhibitor]: ORAL, Species: RAT, Strain/Sex: F344/MALE, Target Tissue: Type of Lesion: SKIN: TUMOR, Dose [Carcinogen]: 0.03% IN DIET FOR FIRST 5 WK (STUDY DURATION: 52 WK), Promoter: NONE): 7/22 (32%), 8/22 (36%), -12.5%, not significant
- outcome (Carcinogen: 2-AMINO-3-METHYLIMIDAZO[4,5-F]QUINOLINE [76180-96-6], Dose [Inhibitor]: 0, 0.1% (W/V BASED ON TOTAL CHLORINS) IN DRINKING WATER BEGINNING 1 WK POST CARCINOGEN TREATMENT FOR THE DURATION STUDY, Route [Inhibitor]: ORAL, Species: RAT, Strain/Sex: F344/MALE, Target Tissue: Type of Lesion: SMALL INTESTINE: TUMOR, Dose [Carcinogen]: 0.03% IN DIET FOR FIRST 5 WK (STUDY DURATION: 52 WK), Promoter: NONE): 0/22 (0%), 0/22 (0%), 0%, not significant
- tumour outcome (control, treated, inhibition, significance) (Carcinogen: 2-AMINO-3-METHYLIMIDAZO[4,5-F]QUINOLINE [76180-96-6], Dose [Inhibitor]: 0, 0.1% (W/V BASED ON TOTAL CHLORINS) IN DRINKING WATER BEGINNING 1 WK POST CARCINOGEN TREATMENT FOR THE DURATION STUDY, Route [Inhibitor]: ORAL, Species: RAT, Strain/Sex: F344/MALE, Target Tissue: Type of Lesion: ZYMBAL'S GLAND: TUMOR, Dose [Carcinogen]: 0.03% IN DIET FOR FIRST 5 WK (STUDY DURATION: 52 WK), Promoter: NONE): 5/22 (23%), 3/22 (14%), 39%, not significant
- tumour outcome (control, treated, inhibition, significance) (Carcinogen: 7,12-DIMETHYLBENZ[A]ANTHRACENE [57-97-6], Dose [Inhibitor]: 0, 0.5% IN 0.2 ML DMSO-ACETONE (15:85, V/V) 2X/WK FOR 30 WK 10 MIN PRIOR TO PROMOTER DOSE (STUDY DURATION: 31 WK), Route [Inhibitor]: DERMAL, Species: MOUSE, Strain/Sex: ICR/FEMALE, Target Tissue: Type of Lesion: SKIN: PAPILLOMA, Dose [Carcinogen]: 0.2 UMOL ONCE (STUDY DURATION: 31 WK), Promoter: 12-O-TETRADECANOYLPHORBOL-13-ACETATE [16561-29-8]): 100%, 40%, 60%, not calculated
- tumour outcome (control, treated, inhibition, significance) (Carcinogen: DIBENZO[A,L]PYRENE [191-30-0], Dose [Inhibitor]: 2052 PPM IN DIET FOR 3 WK BEGINNING 1 WK PRIOR TO FIRST CARCINOGEN DOSE (STUDY DURATION: 11 MONTHS), Route [Inhibitor]: ORAL, Species: FISH, Strain/Sex: SHASTA STRAIN RAINBOW TROUT/MALE,FEMALE, Target Tissue: Type of Lesion: LIVER: TUMOR, Dose [Carcinogen]: 500 PPM IN DIET FOR 2 WK (STUDY DURATION: 11 MONTHS), Promoter: NONE): 61%, 18%, 70%, p<0.001
- tumour outcome (control, treated, inhibition, significance) (Carcinogen: DIBENZO[A,L]PYRENE [191-30-0], Dose [Inhibitor]: 2052 PPM IN DIET FOR 3 WK BEGINNING 1 WK PRIOR TO FIRST CARCINOGEN DOSE (STUDY DURATION: 11 MONTHS), Route [Inhibitor]: ORAL, Species: FISH, Strain/Sex: SHASTA STRAIN RAINBOW TROUT/MALE,FEMALE, Target Tissue: Type of Lesion: STOMACH: TUMOR, Dose [Carcinogen]: 500 PPM IN DIET FOR 2 WK (STUDY DURATION: 11 MONTHS), Promoter: NONE): 91%, 34%, 63%, p<0.001
- tumour outcome (control, treated, inhibition, significance) (Carcinogen: DIBENZO[A,L]PYRENE [191-30-0], Dose [Inhibitor]: 2052 PPM IN DIET FOR 3 WK BEGINNING 1 WK PRIOR TO FIRST CARCINOGEN DOSE (STUDY DURATION: 11 MONTHS), Route [Inhibitor]: ORAL, Species: FISH, Strain/Sex: SHASTA STRAIN RAINBOW TROUT/MALE,FEMALE, Target Tissue: Type of Lesion: SWIM BLADDER: TUMOR, Dose [Carcinogen]: 500 PPM IN DIET FOR 2 WK (STUDY DURATION: 11 MONTHS), Promoter: NONE): 53%, 3%, 94%, p<0.001
- tumour outcome (control, treated, inhibition, significance) (Carcinogen: DIBENZO[A,L]PYRENE [191-30-0], Dose [Inhibitor]: 4000 PPM IN DIET FOR 5 WK BEGINNING 1 WK PRIOR TO FIRST CARCINOGEN DOSE (STUDY DURATION: 9 MONTHS), Route [Inhibitor]: ORAL, Species: FISH, Strain/Sex: SHASTA STRAIN RAINBOW TROUT/MALE,FEMALE, Target Tissue: Type of Lesion: LIVER: TUMOR, Dose [Carcinogen]: 200 PPM IN DIET FOR 4 WK (STUDY DURATION: 9 MONTHS), Promoter: NONE): 36%, 13%, 64%, p<0.001
- tumour outcome (control, treated, inhibition, significance) (Carcinogen: DIBENZO[A,L]PYRENE [191-30-0], Dose [Inhibitor]: 4000 PPM IN DIET FOR 5 WK BEGINNING 1 WK PRIOR TO FIRST CARCINOGEN DOSE (STUDY DURATION: 9 MONTHS), Route [Inhibitor]: ORAL, Species: FISH, Strain/Sex: SHASTA STRAIN RAINBOW TROUT/MALE,FEMALE, Target Tissue: Type of Lesion: STOMACH: TUMOR, Dose [Carcinogen]: 200 PPM IN DIET FOR 4 WK (STUDY DURATION: 9 MONTHS), Promoter: NONE): 48%, 13%, 73%, p<0.001
- tumour outcome (control, treated, inhibition, significance) (Carcinogen: DIBENZO[A,L]PYRENE [191-30-0], Dose [Inhibitor]: 4000 PPM IN DIET FOR 5 WK BEGINNING 1 WK PRIOR TO FIRST CARCINOGEN DOSE (STUDY DURATION: 9 MONTHS), Route [Inhibitor]: ORAL, Species: FISH, Strain/Sex: SHASTA STRAIN RAINBOW TROUT/MALE,FEMALE, Target Tissue: Type of Lesion: SWIM BLADDER: TUMOR, Dose [Carcinogen]: 200 PPM IN DIET FOR 4 WK (STUDY DURATION: 9 MONTHS), Promoter: NONE): 30%, 5%, 83%, p<0.001
- outcome (Dose [Inhibitor]: 250 mg/kg chlorophyllin by gavage daily for 10 days (Study duration 18 wk) (Test material solvent: tricaprylin), Route [Inhibitor]: Oral, Species: Rat, Strain/Sex: F344/Male, Target Tissue: Type of Lesion: Liver: GST placental form positive foci. Colon: aberrant crypt foci, Dose [Carcinogen]: 250 ug/kg by gavage daily for 10 days along or in combination with inhibitor (Study duration 18 wk) (Test material solve, Promoter: None): liver: 74% reduction in vol % of liver occupied (p<0.001) colon; 63% reduction i
